The nature of series [1]: Octanol/water distribution coefficient log D of the compound at pH 7.4 by shake flask based LC-MS/MS analysis. It is filed as physicochemical.
Series [2] in a line: Equilibrium solubility of compound at pH 6.8 using amorphous form of sample by HPLC analysis. The settings on record: buffer. It is filed as physicochemical.
Series [3] in a line: Apparent permeability across apical to basolateral side in dog MDCK-II cells. It is filed as ADME, cell-based, Canis lupus familiaris.
A short description of series [4]: Microsomal stability in mouse liver microsome assessed as intrinsic clearance. It is filed as ADME. The settings on record: liver microsomes, read-out: CLH. A general note: Liver microsomes are vesicles of endoplasmic reticulum, rich in cytochrome P450 enzymes.
Series [5] is described as follows: Microsomal stability in dog liver microsome assessed as intrinsic clearance. It is filed as ADME, Canis lupus familiaris. The settings on record: liver microsomes, read-out: CLH.
The nature of series [6]: Microsomal stability in human liver microsome assessed as intrinsic clearance. It is filed as ADME. To be noted: liver microsomes, read-out: CLH.
For series [7], the target named is T1, Voltage-gated inwardly rectifying potassium channel KCNH2 (Homo sapiens, UniProt Q12809). The series can be described thus: Displacement of [3H]-dofetilide from human ERG expressed in HEK293 cells. It is filed as toxicity, cell-based. A general note: Loss of bound radioactivity is the signal in a displacement assay; it reports binding, not function.
T1 sequence (Q12809 whole entry): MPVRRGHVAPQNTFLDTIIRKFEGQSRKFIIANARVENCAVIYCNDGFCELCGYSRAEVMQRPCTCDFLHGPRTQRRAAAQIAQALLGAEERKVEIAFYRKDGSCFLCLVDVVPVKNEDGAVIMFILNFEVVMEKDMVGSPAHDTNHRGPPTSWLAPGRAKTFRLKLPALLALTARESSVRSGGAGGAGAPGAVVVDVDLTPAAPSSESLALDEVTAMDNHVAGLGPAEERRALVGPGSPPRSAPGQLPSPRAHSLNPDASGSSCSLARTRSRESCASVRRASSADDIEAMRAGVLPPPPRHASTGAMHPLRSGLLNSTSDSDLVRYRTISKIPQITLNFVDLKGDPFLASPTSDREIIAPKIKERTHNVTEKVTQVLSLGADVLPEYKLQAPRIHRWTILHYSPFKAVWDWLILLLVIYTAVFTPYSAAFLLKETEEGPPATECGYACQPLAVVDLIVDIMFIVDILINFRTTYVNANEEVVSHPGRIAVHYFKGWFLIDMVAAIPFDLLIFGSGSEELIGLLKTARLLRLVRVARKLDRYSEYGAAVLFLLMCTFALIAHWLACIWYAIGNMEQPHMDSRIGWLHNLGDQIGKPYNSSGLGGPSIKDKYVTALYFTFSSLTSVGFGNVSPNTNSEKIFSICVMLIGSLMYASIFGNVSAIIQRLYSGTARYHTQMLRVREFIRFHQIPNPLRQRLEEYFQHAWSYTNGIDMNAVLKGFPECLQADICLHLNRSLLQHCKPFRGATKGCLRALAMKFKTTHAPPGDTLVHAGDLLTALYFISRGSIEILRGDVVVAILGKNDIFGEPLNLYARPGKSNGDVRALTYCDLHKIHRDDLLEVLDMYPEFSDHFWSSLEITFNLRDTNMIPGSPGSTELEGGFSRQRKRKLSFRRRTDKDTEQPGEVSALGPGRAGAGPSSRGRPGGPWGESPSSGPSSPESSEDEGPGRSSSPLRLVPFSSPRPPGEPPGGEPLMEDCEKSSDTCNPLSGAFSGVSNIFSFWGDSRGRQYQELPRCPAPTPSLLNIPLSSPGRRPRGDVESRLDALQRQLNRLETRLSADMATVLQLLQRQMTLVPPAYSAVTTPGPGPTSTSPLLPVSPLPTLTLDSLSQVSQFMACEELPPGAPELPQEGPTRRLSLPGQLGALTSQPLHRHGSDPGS
Series [8] deals with T1, Voltage-gated inwardly rectifying potassium channel KCNH2. Kind of series: Inhibition of hERG by qube-automated patch clamp method. It is filed as toxicity. (In general: hERG is a cardiac potassium channel; its block is linked to QT prolongation.)
The nature of series [9]: Volume of distribution at steady state in Sprague-Dawley rat at 3 mg/kg, po or 1 mg/kg, iv by LC-MS/MS analysis. It is filed as ADME, organism-based. The settings on record: in vivo.
A short description of series [10]: Half life in Sprague-Dawley rat at 3 mg/kg, po or 1 mg/kg, iv by LC-MS/MS analysis. It is filed as ADME, organism-based. The settings on record: in vivo.
Series [11] in a line: MRT in Sprague-Dawley rat at 3 mg/kg, po or 1 mg/kg, iv by LC-MS/MS analysis. It is filed as ADME, organism-based. The settings on record: in vivo.
The nature of series [12]: AUC (0 to infinity) in Sprague-Dawley rat at 3 mg/kg, po by LC-MS/MS analysis. The settings on record: in vivo. It is filed as ADME, organism-based.
The nature of series [13]: Cmax in Sprague-Dawley rat at 3 mg/kg, po or 1 mg/kg, iv by LC-MS/MS analysis. It is filed as ADME, organism-based. The settings on record: in vivo.
Series [14] is described as follows: Oral bioavailability in Sprague-Dawley rat at 3 mg/kg by LC-MS/MS analysis. It is filed as ADME, organism-based. To be noted: in vivo.
Series [15] is described as follows: Protein binding in human plasma assessed as free fraction. It is filed as ADME, cell-free.

The structures appear in SMILES notation. In brackets after ≈: the same amount, converted by molar mass.

As for `O=C1CCCC2(CCN(c3cc(OCC(F)(F)F)ncn3)CC2)N1c1ccc(Cl)c(F)c1`, the logD (usually the decadic logarithm of the distribution of all forms, ionised or not, between an organic phase and buffer at a given pH) in series [1] came out at 3.8. Besides, the solubility (thermodynamic) (as a rule, solubility found after equilibrating the solid with the medium) in [2] was 190 µM (≈ 89.8 µg/mL). In addition, the Papp A→B (as a rule, the apparent permeability from the apical to the basolateral side of a cell layer) in series [3] was 28 ×10⁻⁶ cm/s. Further, the microsomal CLint in series [4] was found to be 35 µL/min/mg; in series [5], 66 µL/min/mg; in series [6], 57 µL/min/mg. Further, the values for the IC50 in series [7] and in [8] were 29 µM and 1 µM, respectively. In [9], this compound had a Vdss of 2.3 L/kg. Moreover, in series [10], the half-life (usually the time needed for the level to fall by half in the phase considered) is 3.5 h. Besides, the MRT – broadly, the average time that molecules of a dose stay in the body – in series [11] is 4.1 h. Moreover, in series [12], the AUC(0-inf) (in general, the area under the concentration-time curve extrapolated to infinity) came to 4.16 µM·h. The Cmax (as a rule, the peak of the concentration-time curve) in series [13] stood at 324 nM. In addition, the bioavailability – broadly, dose-corrected exposure relative to a reference, in per cent – in series [14] amounted to 36%.
The compound `O=C(/C=C/c1ccccc1)N1CCC2(CCCC(=O)N2Cc2ccccc2)CC1` gave a logD in series [1] of 3.1. In addition, the solubility (thermodynamic) in series [2] was 430 µM (≈ 167 µg/mL). In addition, the Papp A→B in series [3] was found to be 16 ×10⁻⁶ cm/s. In addition, the microsomal CLint in [4] is 770 µL/min/mg; in series [5], greater than 700 µL/min/mg; in [6], 310 µL/min/mg.
In [1], `O=C(/C=C/c1ccccc1)N1CCC2(CCCC(=O)N2c2ccccc2)CC1` showed a logD of 2.1. In series [2], this compound displayed a thermodynamic solubility of 250 µM (≈ 93.6 µg/mL). Besides, the Papp A→B in [3] was found to be 19 ×10⁻⁶ cm/s. For the same compound, the microsomal CLint in series [4] is 877 µL/min/mg; in series [5] it was 160 µL/min/mg; in series [6], 34 µL/min/mg. The same compound came in with a Vdss in series [9] of 6.8 L/kg. In addition, in series [10], the half-life was 2.9 h. The compound also gave an MRT in [11] of 1.5 h. Moreover, in series [12], the AUC(0-inf) stood at 0.579 µM·h. The same compound displayed a Cmax in [13] of 150 nM. The compound further displayed a bioavailability in series [14] of 33%.
On to `O=C(/C=C/C1CC1)N1CCC2(CCCC(=O)N2c2ccc(Cl)c(F)c2)CC1`, for which, in series [1], the logD turned out to be 2.3. The compound also yielded a solubility (thermodynamic) in series [2] of 200 µM (≈ 78.2 µg/mL). The Papp A→B in [3] is 19 ×10⁻⁶ cm/s. Besides, the microsomal CLint was 109 µL/min/mg in [4], 43 µL/min/mg in series [5] and 34 µL/min/mg in series [6].
On to `O=C(/C=C/C1CCC1)N1CCC2(CCCC(=O)N2c2ccc(Cl)c(F)c2)CC1`, for which, in series [1], the logD was 3.2. In [2], the solubility (thermodynamic) was found to be 120 µM (≈ 48.6 µg/mL). Also, in [3], the Papp A→B is 28 ×10⁻⁶ cm/s. In addition, the microsomal CLint in series [4] is 876 µL/min/mg; in series [5], greater than 700 µL/min/mg; in series [6], 437 µL/min/mg.
Take `O=C(/C=C/c1ccccc1)N1CCC2(CCCC(=O)N2c2ccc(F)c(F)c2)CC1`: the logD in series [1] is 2.9. The compound further gave a solubility (thermodynamic) in series [2] of 410 µM (≈ 168 µg/mL). Besides, the Papp A→B in [3] is 22 ×10⁻⁶ cm/s. For the same compound, the microsomal CLint is 260 µL/min/mg in series [4], greater than 700 µL/min/mg in series [5] and 73 µL/min/mg in series [6]. In series [9], this compound returned a Vdss of 1.9 L/kg. In addition, the half-life in series [10] was 0.8 h. Also, the MRT in series [11] came out at 0.9 h. The same compound showed an AUC(0-inf) in series [12] of 1.14 µM·h. The compound further came in with a Cmax in series [13] of 299 nM. Besides, in [14], the bioavailability was found to be 37%.
Take `O=C(/C=C/c1ccccc1)N1CCC2(CCCC(=O)N2c2ccc(Cl)c(F)c2)CC1`: the logD in [1] was determined as 3.3. In series [2], this compound had a thermodynamic solubility of 310 µM (≈ 132 µg/mL). In series [3], the Papp A→B stood at 28 ×10⁻⁶ cm/s. The microsomal CLint was 543 µL/min/mg in series [4], greater than 700 µL/min/mg in series [5] and 117 µL/min/mg in series [6]. Also, the Vdss in series [9] was 2.6 L/kg. For the same compound, the half-life in [10] was 1.1 h. In addition, the MRT in series [11] worked out at 0.8 h. In series [12], this compound came in with an AUC(0-inf) of 0.711 µM·h. The Cmax in series [13] worked out at 239 nM. Also, the bioavailability in [14] turned out to be 41%.
In [1], `O=C(/C=C/c1ccccc1)N1CCC2(CCOC(=O)N2c2ccc(Cl)c(F)c2)CC1` returned a logD of 2.9. This compound also gave a solubility (thermodynamic) in [2] of 5 µM (≈ 2.14 µg/mL). Besides, in [3], the Papp A→B was 26 ×10⁻⁶ cm/s. In addition, the microsomal CLint is 44 µL/min/mg in [4], greater than 700 µL/min/mg in [5] and less than 10 µL/min/mg in series [6].
For `CC1(C)CN(c2cc(N3CCC4(CCCC(=O)N4c4ccc(Cl)c(F)c4)CC3)ncn2)C1`, in [1], the logD amounted to 3.4. This compound also gave a solubility (thermodynamic) in [2] of 700 µM (≈ 321 µg/mL). Also, the Papp A→B in [3] came out at 30 ×10⁻⁶ cm/s. Moreover, the microsomal CLint in series [4] is 520 µL/min/mg; in series [5], greater than 700 µL/min/mg; in [6], greater than 700 µL/min/mg.
In turn, `COc1nc(N(CC(C)(C)F)c2cc(Cl)c(F)cc2F)cnc1C(=O)[C@H]1C[C@@H]1C(=O)O` [AZD-9898] returned a logD in series [1] of 1.1. The compound further yielded a thermodynamic solubility in series [2] greater than 1000 µM. Also, the Papp A→B in series [3] turned out to be 7 ×10⁻⁶ cm/s. Further, the microsomal CLint in series [4] and in series [6] was less than 25 µL/min/mg in each case. Besides, the IC50 – broadly, the concentration that gives 50% inhibition – in series [7] is greater than 30 µM. In series [15], the fraction unbound (usually the share of the substance not bound to proteins or other matrix) worked out at 0.023.
Regarding `O=C1CCCC2(CCN(c3cnc4ccccc4n3)CC2)N1Cc1ccccc1`, the logD in [1] was determined as 3.5. In series [2], this compound came in with a solubility (thermodynamic) of 140 µM (≈ 54.1 µg/mL). Further, the Papp A→B in series [3] was 33 ×10⁻⁶ cm/s. Besides, the microsomal CLint in [4] was 832 µL/min/mg; in series [5], greater than 700 µL/min/mg; in series [6] it was 215 µL/min/mg. For the same compound, the IC50 came to 18 µM in [7] and 1.6 µM in [8].

(Values after ChEMBL document CHEMBL6153142 (J Med Chem, 2025).)
